US7462324B2, “Measurement device and method for measuring electric signal from biological sample” (Panasonic Corporation, priority 2002, dated 2008)

Test system: rat artery smooth muscles (SM)
Assay: Intracellular potential of a rat artery smooth muscle cell on carbachol administration, voltage clamp with measurement device 10
Type: cell-based
Protocol: As the biological sample 21, rat artery smooth muscles (SM) were used. As a solution to be injected into the measurement device 10, DMEM culture medium to which 10% FBS (fetal bovine serum) was added was used. An SM cell was inserted into the microelectrode 1 by performing the same operation as that of EXAMPLE 2, and then an intracellular potential when 100 μM carbachol, which was an analog of acetylcholine, was introduced as a solution was measured by a voltage clamp method.
The results were similar to those obtained by the known intracellular recording method.
FIG. 13 is a histogram of standard deviation per 10 ms before and after a carbachol administration. The mean value and half width of the graph, obtained by approximating the histogram before and after a carbachol administration with a normal distribution are 0.185 and 0.04, respectively, before the administration and 0.545 and 0.21, respectively, after the administration. […] The reason for the increase was that by the administration of carbachol, ion channels of the […] was activated, and changes in conductance due to switching of the activated ion channels is expressed by voltage change. From FIG. 13, it was confirmed that with the measurement device 10, ion channel properties for a nerve stimulator can be determined as in the same manner in the known intracellular recording method.

SMILES: C[N+](C)(C)CCOC(N)=O [carbachol]
- action potential in response to carbachol (100 μM carbachol introduced as a solution, SM cell on microelectrode, DMEM + 10% FBS, FIG. 12): detected
- mean value of histogram of standard deviation per 10 ms of the action potential (normal distribution approximation) (after carbachol administration (100 μM), before administration 0.185, FIG. 13): 0.545
